Data published in patent US20230263822A1, “MODULATION OF FACTOR 11 EXPRESSION” (Ionis Pharmaceuticals, Inc., priority 2008, published 2023).
Read-outs that look alike come from different tables or passages of the source. Strand notation (5' to 3'): a small letter for the sugar, then the base; units joined by * are phosphorothioate-linked, units joined directly phosphodiester-linked; [ ] holds rarer units or linkages, { } end groups; capitals alone tell only the bases. e = 2'-O-(2-methoxyethyl) (MOE); [5mC] = 5-methylcytosine; d = 2'-deoxy (DNA)

Legend:
human Factor 11 mRNA = test: Antisense inhibition of human Factor 11 in HepG2 cells, electroporation, 8,000 nM (Example 30); format: cell-based; details: electroporation, 8,000 nM antisense oligonucleotide
In short: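 HepG2 cells electroporated with 8,000 nM 5-10-5, 5-8-5 or 6-8-6 MOE gapmers (phosphorothioate, 5-methylcytidine), ~24 h. Factor 11 mRNA quantified by qRT-PCR, normalised to RIBOGREEN total RNA. Reported as percent inhibition versus untreated cells.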

[1] = Viscosity of ISIS antisense oligonucleotides, micro-viscometer at 25 °C (Example 47); format: physicochemical; details: for Concentration: concentration of the viscosity sample, UV reading at 260 nM at 85° C.; for Viscosity: in water, micro-viscometer at 25° C., at the concentration of the same line
Protocol: The viscosity of antisense oligonucleotides targeting human Factor 11 was measured with the aim of screening out antisense oligonucleotides which have a viscosity more than 40 cP at a concentration of 165-185 mg/mL.
ISIS oligonucleotides (32-35 mg) were weighed into a glass vial, 120 μL of water was added and the antisense oligonucleotide was dissolved into solution by heating the vial at 50° C. Part of (75 μL) the pre-heated sample was pipetted to a micro-viscometer (Cambridge). The temperature of the micro-viscometter was set to 25° C. and the viscosity of the sample was measured. Another part (20 μL) of the pre-heated sample was pipetted into 10 mL of water for UV reading at 260 nM at 85° C. (Cary UV instrument).

[2] = mouse, in vivo, sc, 50 mg/kg
[3] = mouse, in vivo, sc, 50 mg/kg; remark: listed apart in the source
[4] = mouse, in vivo, sc, 50 mg/kg; remark: listed apart in the source
[5] = mouse, in vivo, sc, 50 mg/kg; remark: listed apart in the source

Substance | Percent inhibition of human Factor 11 mRNA levels (human Factor 11 mRNA) [%] | Concentration [1] [mg/mL] | Viscosity [1] [cP] | ALT [2] [IU/L] | AST [2] [IU/L] | Bilirubin [2] [mg/dL] | Cholesterol [2] [mg/dL] | BUN [3] [mg/dL] | HCT [4] [%] | Lymphocyte [4] [cells/μL] | Neutrophil [4] [cells/μL] | Platelets [4] | RBC [4] | WBC [4] | hemoglobin [4] [g/dL] | monocytes [4] [cells/μL] | HCT [5] [%] | RBC [5] | WBC [5] | hemoglobin [5] [g/dL]
445513 (antisense eG*e[5mC]*eA*eG*e[5mC]*eG*dG*dA*d[5mC]*dG*dG*d[5mC]*dA*dT*eT*eG*eG*eT*eG*e[5mC]) [compound 445513] | 85 | 167 | 34 | – | – | – | – | – | – | – | – | – | – | – | – | – | – | – | – | –
445530 (antisense eG*e[5mC]*eA*eT*eT*dG*dG*dT*dG*d[5mC]*dA*d[5mC]*dA*eG*eT*eT*eT*e[5mC]) [compound 445530] | 83 | 177 | 25 | – | – | – | – | – | – | – | – | – | – | – | – | – | – | – | – | –
ISIS 416849: MOE gapmer, nucleobases 1275 to 1318 of SEQ ID NO: 1 (Table 8) (antisense GCACAGTTTCTGGCAGGCCT; MOE gapmer, wing and gap sizes not given here) | – | – | – | 1056 | 582 | 0.22 | 109 | 23 | 48 | 6967 | 1522 | 744 10^3/μL | 9 10^6/μL | 9 10^3/μL | 14 | 253 | – | – | – | –
ISIS 416853: MOE gapmer, nucleobases 1275 to 1318 of SEQ ID NO: 1 (Table 8) (antisense TTGGTGCACAGTTTCTGGCA; MOE gapmer, wing and gap sizes not given here) | – | – | – | 1023 | 1087 | 0.25 | 164 | 22 | 56 | 5184 | 2040 | 801 10^3/μL | 11 10^6/μL | 8 10^3/μL | 17 | 225 | – | – | – | –
ISIS 416854: MOE gapmer, nucleobases 1275 to 1318 of SEQ ID NO: 1 (Table 8) (antisense ATTGGTGCACAGTTTCTGGC; MOE gapmer, wing and gap sizes not given here) | – | – | – | 1613 | 1140 | 0.21 | 199 | 27 | 43 | 9375 | 2082 | 1060 10^3/μL | 9 10^6/μL | 12 10^3/μL | 13 | 455 | – | – | – | –
ISIS 445513, (antisense GCAGCGGACGGCATTGGTGC; 6-8-6 MOE gapmer, further chemistry not given here) | – | – | – | – | – | – | – | – | – | – | – | – | – | – | – | – | 50 | 9.8 | 7 | 15.0
